Biological target: T1, H. pylori arginase (RocF) (Helicobacter pylori, UniProt O25949)
T1 construct: gene HP_1399
T1 sequence (O25949 entry or part of it): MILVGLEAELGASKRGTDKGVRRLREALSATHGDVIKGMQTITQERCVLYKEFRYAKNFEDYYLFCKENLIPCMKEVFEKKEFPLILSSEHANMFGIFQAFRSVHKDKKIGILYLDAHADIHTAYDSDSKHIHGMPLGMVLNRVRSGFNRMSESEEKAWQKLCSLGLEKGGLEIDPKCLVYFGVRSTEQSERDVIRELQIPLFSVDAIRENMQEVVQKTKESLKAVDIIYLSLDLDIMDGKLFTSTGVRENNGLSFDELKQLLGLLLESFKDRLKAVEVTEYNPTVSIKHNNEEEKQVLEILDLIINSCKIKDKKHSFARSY

Structure (SMILES): N=C(N)NCCC[C@H](N)C(=O)O [L-arginine]
- L-ornithine formation by acidified ninhydrin, 515 nm: With E. coli (pBS-rocF), optimal arginase activity was with cobalt
